Laboratory results published in ChEMBL document CHEMBL5543084, “Development of cannabidiol derivatives as potent broad-spectrum antibacterial agents with membrane-disruptive mechanism” (Eur J Med Chem, 2024).
Converted amounts (≈) assume the structure as drawn. The source made the active and inactive calls. No cut-off for these calls is given here.

How the values were obtained:
Acinetobacter baumannii = test: Antibacterial activity against Acinetobacter baumannii ATCC 17978 assessed as inhibition of bacterial growth incubated for 24 hrs by broth dilution method; type: functional
Klebsiella pneumoniae [1] = test: Antibacterial activity against Klebsiella pneumoniae ATCC 14581 assessed as inhibition of bacterial growth incubated for 24 hrs by broth dilution method; type: functional
[2] = Hemolytic activity against rabbit blood cells incubated for 1 hr relative to control; type: toxicity, cell-based, Oryctolagus cuniculus, Erythrocyte; conditions: rabbit blood cells (erythrocytes)
Staphylococcus aureus [3] = test: Antibacterial activity against Staphylococcus aureus ATCC 29213 assessed as inhibition of bacterial growth incubated for 24 hrs in presence of 140 mM Na+ by broth dilution method; type: functional
Staphylococcus aureus [4] = test: Antibacterial activity against methicillin-resistant Staphylococcus aureus NCTC 10442 assessed as inhibition of bacterial growth incubated for 24 hrs in presence of 140 mM Na+ by broth dilution method; type: functional
Escherichia coli [5] = test: Antibacterial activity against Escherichia coli ATCC 25922 assessed as inhibition of bacterial growth incubated for 24 hrs in presence of 2.5 mM Ca2+ by broth dilution method; type: functional
Klebsiella pneumoniae [6] = test: Antibacterial activity against Klebsiella pneumoniae ATCC 10031 assessed as inhibition of bacterial growth incubated for 24 hrs in presence of 2.5 mM Ca2+ by broth dilution method; type: functional
Escherichia coli [7] = test: Antibacterial activity against Escherichia coli ATCC 25922 assessed as inhibition of bacterial growth incubated for 24 hrs in presence of 1 mM Mg2+ by broth dilution method; type: functional
Klebsiella pneumoniae [8] = test: Antibacterial activity against Klebsiella pneumoniae ATCC 10031 assessed as inhibition of bacterial growth incubated for 24 hrs in presence of 1 mM Mg2+ by broth dilution method; type: functional
Staphylococcus aureus [9] = test: Antibacterial activity against Staphylococcus aureus ATCC 29213 assessed as inhibition of bacterial growth incubated for 24 hrs in presence of 20 uM Fe2+ by broth dilution method; type: functional
Staphylococcus aureus [10] = test: Antibacterial activity against methicillin-resistant Staphylococcus aureus NCTC 10442 assessed as inhibition of bacterial growth incubated for 24 hrs in presence of 20 uM Fe3+ by broth dilution method; type: functional
[11] = Cytotoxicity against mouse fibroblast NCTC clone 929 cells assessed as viable cells at 3.125 microg/ml incubated for 24 hrs by CCK-8 assay; type: toxicity, cell-based; conditions: NCTC clone 929 (L929) fibroblast cells, at 3.125 µg/mL, read-out: Activity
[12] = Cytotoxicity against mouse fibroblast NCTC clone 929 cells assessed as viable cells at 25 microg/ml incubated for 24 hrs by CCK-8 assay; type: toxicity, cell-based; conditions: NCTC clone 929 (L929) fibroblast cells, at 25 µg/mL, read-out: Activity
[13] = Cytotoxicity against human HepG2 cells assessed as viable cells at 25 microg/ml incubated for 24 hrs by CCK-8 assay; type: toxicity, cell-based; conditions: at 25 µg/mL, read-out: Activity
Staphylococcus aureus [14] = test: Bactericidal activity against methicillin-resistant Staphylococcus aureus NCTC 10442 assessed as bacterial killing at 8 time of MIC concentration incubated for 0.5 hrs by time-kill assay; type: functional
Escherichia coli [15] = test: Bactericidal activity against Escherichia coli ATCC 25922 assessed as bacterial reduction at 4 time of MIC concentration incubated for 2 hrs by time-kill assay; type: functional
Lipoteichoic acid = test: Displacement of BODIPY-TR-cadaverine from Bacillus subtilis lipoteichoic acid (LTA) assessed as increase in fluorescence intensity by fluorescence spectrophotometric analysis
Lipopolysaccharide (LPS) [16] = test: Displacement of BODIPY-TR-cadaverine from Escherichia coli lipopolysaccharide (LPS) assessed as increase in fluorescence intensity at 2 times MIC measured after 30 mins by fluorescence spectrophotometric analysis; type: subcellular
Lipopolysaccharide (LPS) [17] = test: Displacement of BODIPY-TR-cadaverine from Escherichia coli lipopolysaccharide (LPS) assessed as increase in fluorescence intensity at 4 times MIC measured after 30 mins by fluorescence spectrophotometric analysis; type: subcellular
Staphylococcus aureus [18] = test: Bactericidal activity against methicillin-resistant Staphylococcus aureus NCTC 10442 assessed as up-regulation of molecular functions related gene expression by measuring glutamate-ammonia ligase activity (GO:0004356) at 4 times of MIC concentration measured after 90 mins incubation by RNA sequencing (RNA-seq) study; type: functional, organism-based
Staphylococcus aureus [19] = test: (§1) Bactericidal activity against methicillin-resistant Staphylococcus aureus NCTC 10442 assessed as down-regulation of biological processes related gene expression by measuring UMP biosynthetic process (GO:0044,205) at 4 times of MIC concentration measured after 90 mins incubation by RNA sequencing (RNA-seq) study; type: functional, organism-based
Staphylococcus aureus [20] = test: as §1, with “pyrimidine ribonucleoside monophosphate metabolic (GO:0009173)” for “UMP biosynthetic process (GO:0044,205)”; type: functional, organism-based
Escherichia coli [21] = test: Bactericidal activity against Escherichia coli ATCC 25922 assessed as down-regulation of galactose metabolic process (GO:0006012) at 4 times of MIC concentration measured after 90 mins incubation by RNA sequencing (RNA-seq) study; type: functional, organism-based
Staphylococcus aureus [22] = test: (§2) Bactericidal activity against methicillin-resistant Staphylococcus aureus NCTC 10442 assessed as change in amino acid metabolism gene expression at 4 times of MIC concentration measured after 90 mins incubation by RNA sequencing (RNA-seq) study; type: functional, organism-based
Escherichia coli [23] = test: (§3) Bactericidal activity against Escherichia coli ATCC 25922 assessed as change in amino acid metabolism gene expression at 4 times of MIC concentration measured after 90 mins incubation by RNA sequencing (RNA-seq) study; type: functional, organism-based
Staphylococcus aureus [24] = test: Bactericidal activity against methicillin-resistant Staphylococcus aureus NCTC 10442 assessed as down regulation of other glycan degradation gene expression at 4 times of MIC concentration measured after 90 mins incubation by RNA sequencing (RNA-seq) study; type: functional, organism-based
Staphylococcus aureus [25] = test: Bactericidal activity against methicillin-resistant Staphylococcus aureus NCTC 10442 assessed as up regulation of phosphonate and phosphinate metabolism gene expression at 4 times of MIC concentration measured after 90 mins incubation by RNA sequencing (RNA-seq) study; type: functional, organism-based
Staphylococcus aureus [26] = test: as §2, with “cell death associated gene expression by measuring up-regulation of clfB, DX983_RS14825) and DX983_RS14235” for “amino acid metabolism”; type: functional, organism-based
Escherichia coli [27] = test: as §3, with “cell death associated gene expression by measuring down-regulation of LPS export ABC transporter periplasmic-encoding gene (lptC, D1792_RS12575)” for “amino acid metabolism”; type: functional, organism-based
Escherichia coli [28] = test: as §3, with “cell death associated gene expression by measuring down-regulation of the inner membrane protein-coding gene (yqiJ, D1792_RS11855)” for “amino acid metabolism”; type: functional, organism-based
Escherichia coli [29] = test: as §3, with “cell death associated gene expression by measuring down-regulation of glycosyltransferase family 2 (D1792_RS06385)” for “amino acid metabolism”; type: functional, organism-based
Escherichia coli [30] = test: as §3, with “cell death associated gene expression by measuring down-regulation of UDP-glucose 4-epimerase (galE, D1792_RS06370)” for “amino acid metabolism”; type: functional, organism-based
Escherichia coli [31] = test: Bactericidal activity against Escherichia coli ATCC 25922 assessed as change in metabolic stress associated gene expression by measuring down-regulation of gale (DX983_RS06370) gene expression at 4 times of MIC concentration measured after 90 mins incubation; type: functional, organism-based
[32] = Toxicity in C57BL6 mouse assessed as signs of toxicity treated in eyeballs 4 times in a day for 3 consecutive days; conditions: in vivo, topical_or_ocular

C=C(C)[C@@H]1CCC(C)=C[C@H]1c1c(OCCCNC(=N)N)cc(CCCCC)cc1OCCCNC(=N)N
MIC (Acinetobacter baumannii): 3.12 µg/mL (≈ 6.09 µM)
MIC (Klebsiella pneumoniae [1]): 1.56 µg/mL (≈ 3.04 µM)
HC50 at 1 h [2]: > 200 µg/mL
MIC (Staphylococcus aureus [3]): 0.78 µg/mL
MIC (Staphylococcus aureus [4]): 0.39 µg/mL
MIC (Escherichia coli [5]): 3.12 µg/mL
MIC (Klebsiella pneumoniae [6]): 6.25 µg/mL
MIC (Escherichia coli [7]): 1.56 µg/mL
MIC (Klebsiella pneumoniae [8]): 6.25 µg/mL
MIC (Staphylococcus aureus [9]): 0.39 µg/mL
MIC (Staphylococcus aureus [10]): 0.39 µg/mL
viability at 24 h, 3.125 microg/ml [11]: 92.3%
viability at 24 h, 25 microg/ml [12]: 68.7%
viability at 24 h, 25 microg/ml [13]: 92.9%
inhibition (INH) (Staphylococcus aureus [14]): 99.9%
Activity (Escherichia coli [15]): 5.52 log10FFU/ml
Activity (Lipoteichoic acid): Dose-Dependent Effect
Activity (Lipopolysaccharide (LPS) [16]): 54%
Activity (Lipopolysaccharide (LPS) [17]): 76.5%
Activity (Staphylococcus aureus [18]): Active
Activity (Staphylococcus aureus [19]): Active
Activity (Staphylococcus aureus [20]): Active
Activity (Escherichia coli [21]): Active
Activity (Staphylococcus aureus [22]): Active
Activity (Escherichia coli [23]): Active
Activity (Staphylococcus aureus [24]): Active
Activity (Staphylococcus aureus [25]): Active
Activity (Staphylococcus aureus [26]): Active
Activity (Escherichia coli [27]): Active
Activity (Escherichia coli [28]): Active
Activity (Escherichia coli [29]): Active
Activity (Escherichia coli [30]): Active
Activity (Escherichia coli [31]): Active
Activity [32]: Non-Toxic
